Laboratory results reported in US9169213B2, “Method of weight management” (Arena Pharmaceuticals, Inc., priority 2012, dated 2015).
Several values for one entry are separate records, joined by “and”; a condition that tells them apart may be missing. Equal values may be shown once.

Legend:
Format in all cases: in vivo, human
[1] = BLOOM-DM (APD356-010) Phase 3 study: Week 52 outcomes by Week 12/Week 24 responder status, patients with type 2 diabetes mellitus; settings: for Diastolic BP, Week 52 Change from Baseline Mean (SE) / HbA1c, Week 52 Change from Baseline Mean (SE) / Heart Rate, Week 52 Change from Baseline Mean (SE) / Systolic BP, Week 52 Change from Baseline Mean (SE): With T2DM
Protocol: APD356-010 (BLOOM-DM) was a 52-week, placebo controlled study that evaluated the effect of two lorcaserin doses (10 mg BID and 10 mg QD) on categorical and total weight loss with concurrent behavior modification in 604 patients with type 2 diabetes mellitus managed with oral hypoglycemic agents. Randomization to the 10 mg once daily group was halted by protocol amendment in order to accelerate enrollment, resulting in final group sizes of 253 (placebo), 95 (lorcaserin QD) and 256 (lorcaserin BID).
(§1) An analysis of early weight loss was performed, at each visit after baseline through Week 24, as a predictor of ultimate weight loss success, as defined by achieving at least about 5% weight loss at 52 weeks, or at least about 10% weight loss at 52 weeks.
Table 3 and Table 4 provide the sensitivity, specificity, positive predicted value (PPV) and negative predictive value (NPV) at Weeks 12 and 24 for at least about 5% and at least about 10% weight loss at Week 52 in different studies. The rounded percent weight loss at Week 12 for at least 5% and at least about 10% weight loss at Week 52 are about 5% and about 6%, respectively. Using the about 6% weight loss at Week 12 as a criterion enhances the PPV for both about 5% and about 10% categorical weight loss at Week 52, but at the expense of excluding about 10% and about 4% more of the about 5% categorical responders at Week 52 in patients without and with diabetes, respectively, based upon NPV. The rounded optimal thresholds at Week 24 for at least about 5% and at least about 10% weight loss at Week 52 are about 6% and about 9%, respectively. Using the 9% weight loss criterion at Week 24 enhances the PPV for both about 5% and about 10% categorical weight loss at Week 52, but at the expense of excluding about 19% and about 9% more of the about 5% categorical responders at Week 52 in patients without and with diabetes, respectively, based upon NPV. As described below, if at least about a 5% weight loss criterion is applied, patients achieving this milestone will achieve an average of about 10.8% weight loss in patients without diabetes and about 9.1% weight loss in patients with diabetes at Week 52.
Tables 6 and 7, below, present weight loss, vital sign, and glycemic changes at Week 52 in pooled patients without diabetes, patients with T2DM, and pooled patients with impaired fasting glucose (IFG; ≧100 mg/dL) who were Week 12 responders.

[2] = Lorcaserin pivotal phase 3 clinical trial program (NDA summary)
Description: The NDA submission is based on an extensive data package from lorcaserin's clinical development program that includes 18 clinical trials totaling 8,576 patients. […] About two-thirds of patients achieved at least 5% weight loss and over one-third achieved at least 10% weight loss. On average, patients lost 17 to 18 pounds or about 8% of their weight. Secondary endpoints, including body composition, lipids, cardiovascular risk factors and glycemic parameters improved compared to placebo. In addition, heart rate and blood pressure went down. […] Lorcaserin improved quality of life, and there was no signal for depression or suicidal ideation. The only adverse event that exceeded the placebo rate by 5% was generally mild or moderate, transient headache. Based on a normal BMI of 25, patients in the first phase 3 trial lost about one-third of their excess body weight. The average weight loss was 35 pounds or 16% of body weight for the top quartile of patients in the second phase 3 trial.

[3] = Pooled BLOOM and BLOSSOM Phase 3 studies: Week 52 outcomes by Week 12/Week 24 responder status, patients without T2DM; settings: for Diastolic BP, Week 52 Change from Baseline Mean (SE) / HbA1c, Week 52 Change from Baseline Mean (SE) / Heart Rate, Week 52 Change from Baseline Mean (SE) / Systolic BP, Week 52 Change from Baseline Mean (SE): Without T2DM
Protocol: APD356-009 (“BLOOM”) was a 104-week, placebo controlled study that assessed the safety and efficacy of lorcaserin 10 mg BID in overweight and obese patients, with concurrent behavior modification. The primary efficacy objective during Year 1 was to evaluate weight loss; the primary objective during Year 2 was to assess the ability of lorcaserin to maintain body weight loss that was achieved during Year 1. At study start, each patient received randomized, double blind treatment assignments for Year 1 and for Year 2 (all patients were given a new randomization number for Year 2 to assure that patients and study personnel remained blinded to treatment assignments). All patients assigned to placebo during Year 1 (50% of randomized population) remained on placebo in Year 2. Patients assigned to lorcaserin during Year 1 were randomly assigned to stay on lorcaserin during Year 2 (⅔ of Year 1 lorcaserin patients) or to switch to placebo (⅓ of Year 1 lorcaserin patients).
APD356-011 (“BLOSSOM”) was a 52-week, placebo controlled study that evaluated the effect of two lorcaserin doses (10 mg BID and 10 mg QD) on categorical and total weight loss with concurrent behavior modification. Patients were randomized in a ratio of 2:1:2 to lorcaserin 10 mg BID, 10 mg QD, or placebo.
as §1

[4] = Week 12 Non-responder (<5%), Completers Population, 10 mg BID
[5] = Week 12 Non-responder (<5%), MITT with LOCF, 10 mg BID
[6] = Week 12 Responder (≧5% weight loss), MITT with LOCF, 10 mg BID
[7] = Week 12 Responder (≧5%), Completers Population, 10 mg BID
[8] = Week 12 Nonresponder (5%), 10 mg BID
[9] = Week 12 Responder (5%), 10 mg BID
[10] = of patients with observed Week 12 data, type 2 diabetes, 10 mg BID
[11] = Week 12 Responder (≧5% weight loss), Completers Population, 10 mg BID
[12] = Week 12 responders without diabetes
[13] = of patients with observed Week 12 data, without diabetes, 10 mg BID, listed as Lorcaserin

In the case of C[C@H]1CNCCc2ccc(Cl)cc21 [lorcaserin, (R)-8-chloro-1-methyl-2,3,4,5-tetrahydro-1H-3-benzazepine], the “Week 52 Weight 5% Responder” value [1, 4] was 29.0%, the “Week 52 Weight 10% Responder” value [1, 4] was 10.0% and the “Week 52 Weight Mean (SE) Change from Baseline, kg” value (from here on “Week 52 Weight Mean (SE) Change”) [1, 4] was −3.45 (0.44) kg. The “Week 52 Weight Mean (SE) Percent Change from Baseline, %” value [1, 4] was −3.36 (0.42) %, the “Week 52 Weight 5% Responder” value [1, 5] was 25.2% and the “Week 52 Weight 10% Responder” value [1, 5] was 8.6%. For the same molecule, the “Week 52 Weight Mean (SE) Change” value [1, 5] was −3.20 (0.36) kg, the “Week 52 Weight Mean (SE) Percent Change from Baseline, %” value [1, 5] was −3.13 (0.35) % and the “Week 52 Weight 5% Responder” value [1, 6] was 71% and 70.5%. For the same molecule, the “Week 52 Weight 10% Responder” value [1, 6] was 36% and 35.9%, the “Week 52 Weight Mean (SE) Change” value [1, 6] was −9.26 (0.77) kg and the “Week 52 Weight Mean (SE) Percent Change from Baseline, %” value [1, 6] was −9.07 (0.70) %. The “Week 52 Weight 5% Responder” value [1, 7] was 70.8%, the “Week 52 Weight 10% Responder” value [1, 7] was 40.0% and the “Week 52 Weight Mean (SE) Change” value [1, 7] was −9.77 (0.89) kg. The “Week 52 Weight Mean (SE) Percent Change from Baseline, %” value [1, 7] was −9.49 (0.80) %, the “change in HbA1c at Week 52” value ([1]; Week 12 non-responders with type 2 diabetes) was −0.84% and the “Week 52 reduction in diastolic blood pressure” value ([1]; Week 12 responders with T2DM) was 1.9 mmHg. For the same molecule, the “Week 52 reduction in heart rate” value ([1]; Week 12 responders with T2DM) was 3.2 BPM, the “Week 52 reduction in systolic blood pressure” value ([1]; Week 12 responders with T2DM) was 2.6 mmHg and the “A1C W52 Change” value ([1]; Week 12 responders, patients with T2DM, 10 mg BID) was −1.2%. For the same molecule, the “Diastolic BP, Week 52 Change from Baseline Mean (SE)” value (“Diastolic BP, Week 52 Change … (SE)” for short) [1, 8] was −1.07 (0.86), the “HbA1c, Week 52 Change from Baseline Mean (SE)” value (“HbA1c, Week 52 Change … (SE)” below) [1, 8] was −0.84 (0.09) and the “Heart Rate, Week 52 Change from Baseline Mean (SE)” value (“Heart Rate, Week 52 Change … (SE)” below) [1, 8] was −0.87 (0.73). The “Systolic BP, Week 52 Change from Baseline Mean (SE)” value (“Systolic BP, Week 52 Change … (SE)” for short) [1, 8] was −0.55 (1.11), the “Diastolic BP, Week 52 Change … (SE)” value [1, 9] was −1.91 (1.01) and the “HbA1c, Week 52 Change … (SE)” value [1, 9] was −1.20 (0.11). The “Heart Rate, Week 52 Change … (SE)” value [1, 9] was −3.24 (1.21), the “Systolic BP, Week 52 Change … (SE)” value [1, 9] was −2.59 (1.73) and the “Week 12 Non-Responder, percentage of patients” value [1, 10] was 139 (64.1%). The “Week 12 Responder (at least 5% weight loss at Week 12), percentage of patients” value [1, 10] was 35.9%, the “Week 12 Responder (at least 5% weight loss at Week 12), percentage of patients” value ([1]; of patients with observed Week 12 data, type 2 diabetes, 10 mg BID, listed as Lorcaserin) was 78 (35.9%) and the “average weight loss at Week 52” value ([1]; patients with diabetes achieving at least about 5% weight loss at Week 12) was “about 9.1%”. The “risk of cardiac valvulopathy” value ([2]; phase 3 program) was “did not increase”, the “average weight lost, of their weight” value ([2]; pivotal phase 3 program) was “about 8%” and the “average weight loss of body weight, top quartile of patients” value ([2]; second phase 3 trial) was 16%. For the same molecule, the “average weight loss, top quartile of patients” value ([2]; second phase 3 trial) was 35 pounds, the “Week 52 Weight 5% Responder” value [3, 4] was 35.9% and the “Week 52 Weight 10% Responder” value [3, 4] was 7.4%. The “Week 52 Weight Mean (SE) Change” value [3, 4] was −3.50 (0.18) kg, the “Week 52 Weight Mean (SE) Percent Change from Baseline, %” value [3, 4] was −3.44 (0.18) % and the “Week 52 Weight 10% Responder” value [3, 5] was 4.7%. For the same molecule, the “Week 52 Weight Mean (SE) Change” value [3, 5] was −2.76 (0.12) kg, the “Week 52 Weight Mean (SE) Percent Change from Baseline, %” value [3, 5] was −2.73 (0.12) % and the “Week 52 Weight 5% Responder” value [3, 11] was 85.8%. The “Week 52 Weight 10% Responder” value [3, 11] was 55.9%, the “Week 52 Weight Mean (SE) Change” value [3, 11] was −11.31 (0.21) kg and the “Week 52 Weight Mean (SE) Percent Change from Baseline, %” value [3, 11] was −11.52 (0.21) %. The “Week 52 Weight 10% Responder” value [3, 6] was 49.8%, the “Week 52 Weight Mean (SE) Change” value [3, 6] was −10.63 (0.18) kg and the “Week 52 Weight Mean (SE) Percent Change from Baseline, %” value [3, 6] was −10.84 (0.18) %. The “Week 52 reduction in diastolic blood pressure” value [3, 12] was 2.5 mmHg, the “Week 52 reduction in heart rate” value [3, 12] was 2.5 BPM and the “Week 52 reduction in systolic blood pressure” value [3, 12] was 3.4 mmHg. The “Diastolic BP, Week 52 Change … (SE)” value [3, 8] was −1.02 (0.25), the “HbA1c, Week 52 Change … (SE)” value [3, 8] was −0.05 (0.01) and the “Heart Rate, Week 52 Change … (SE)” value [3, 8] was −0.29 (0.26). The “Systolic BP, Week 52 Change … (SE)” value [3, 8] was −0.82 (0.34), the “Diastolic BP, Week 52 Change … (SE)” value [3, 9] was −2.52 (0.25) and the “HbA1c, Week 52 Change … (SE)” value [3, 9] was −0.18 (0.01). For the same molecule, the “Heart Rate, Week 52 Change … (SE)” value [3, 9] was −2.45 (0.26), the “Systolic BP, Week 52 Change … (SE)” value [3, 9] was −3.39 (0.34) and the “Week 12 Non-Responder (<5% wt loss), percentage of patients” value ([3]; of patients with observed Week 12 data, without diabetes, 10 mg BID) was 1,286/2,537(50.7%). The “Week 12 Non-Responder (<5% wt loss), percentage of patients” value [3, 13] was 1286 (50.7%), the “Week 12 Responder (at least 5% weight loss at Week 12), percentage of patients” value [3, 13] was 1251 (49.3%) and the “average weight loss at Week 52” value ([3]; patients without diabetes achieving at least about 5% weight loss at Week 12) was “about 10.8%”.
